Read-outs that look alike come from different tables or passages of the source.
How the values were obtained:
human keratinocyte cells = type: cell-based; settings: 24 h incubation, total protein quantity
[1] = Peroxide radicals capturing capacity; type: biochemical; settings: pure polyphenols isolated from wood material
Source text: Tables 4C and 4D further represent the free radicals capturing capacity of certain pure polyphenols and unpurified polyphenol extracts with respect to peroxide radicals.

[2] = Antioxidative capacity: inhibition of the peroxidation of lipids; type: biochemical; settings: pure polyphenols isolated from wood materials
Source text: In Tables 4A, 4B, 4C and 4D, there are represented antioxidative and free radical capturing effects of pure polyphenolic compounds and of unpurified polyphenolic compounds containing raw extracts obtained from wood bark and stem knotwood.

[3] = pure polyphenols; footnote 1: Willför et al., J. Agric. Food. Chem., 51, 7600-7606 (2003); cited from earlier work
[4] = pure polyphenols; footnote 1: Willför et al., J. Agric. Food. Chem, 51, 26 (2003); cited from earlier work

EC50 μg/L, concentration which inhibits 50% of the peroxidation of the lipids [2] [µg/L]	Compound	EC20 ppm 24 h (limit value by which 20% of the cultivated cells died) (human keratinocyte cells) [ppm]	capturing capacity mmol/g (peroxide radicals) [1] [mmol/g]	capturing capacity mmol/g (peroxide radicals) [3] [mmol/g]	EC50 μg/L, concentration which inhibits 50% of the peroxidation of the lipids [4] [µg/L]
	Cc1cc(C(C)(C)C)c(O)c(C(C)(C)C)c1 [BTH, butylated hydroxytoluene]	5.50			
17	COc1cc([C@H]2c3cc(O)c(OC)cc3C[C@@H](CO)[C@@H]2CO)ccc1O [Cyclolariciresinol]		12		
488	O=C1c2c(O)cc(O)cc2O[C@H](c2ccc(O)cc2)[C@H]1O [Dihydrokaempferol]		0.78		
	COc1cc(C[C@H]2C(=O)OC[C@@H]2[C@H](O)c2ccc(O)c(OC)c2)ccc1O [Hydroxymatairesinol]			5.6	58
	COc1cc(C[C@H]2CO[C@H](c3ccc(O)c(OC)c3)[C@H]2CO)ccc1O [Lariciresinol]			2.7	126
	COc1cc(C[C@H]2COC(=O)[C@@H]2Cc2ccc(O)c(OC)c2)ccc1O [Matairesinol]			2.9	99
36	Oc1ccc([C@H]2Oc3c(ccc(O)c3O)[C@@H](O)[C@H]2O)cc1O [Melacasidine]		20		
	COc1cc(C[C@H]2COC(=O)[C@]2(O)Cc2ccc(O)c(OC)c2)ccc1O [Nortrachelogenin]			5.9	53
1135	O=C1C[C@@H](c2ccccc2)Oc2cc(O)cc(O)c21 [Pinosembrin]		0.49		
50	Oc1cc(O)cc(/C=C/c2ccccc2)c1 [Pinosylvin]		0.78		
	COc1cc(C[C@@H](CO)[C@H](CO)Cc2ccc(O)c(OC)c2)ccc1O [Secoisolariciresinol]			8.5	37
	O=C1c2c(O)cc(O)cc2O[C@H](c2ccc(O)c(O)c2)[C@H]1O [Taxifolin]			16	46
50	Oc1ccc([C@H]2Oc3c(ccc(O)c3O)[C@@H](O)[C@H]2O)cc1 [Teracasidine]		7.8		

Compound	EC50 μg/L, concentration which inhibits 50% of the peroxidation of the lipids [2] [µg/L]	EC20 ppm 24 h (limit value by which 20% of the cultivated cells died) (human keratinocyte cells) [ppm]	capturing capacity mmol/g (peroxide radicals) [1] [mmol/g]	capturing capacity mmol/g (peroxide radicals) [3] [mmol/g]	EC50 μg/L, concentration which inhibits 50% of the peroxidation of the lipids [4] [µg/L]
Pinoresinol	20		7.8		
